According to PubChem BioAssay (NCI):
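The compound was tested at five concentrations on cells cultured in 96-well plates, with a 48-hour exposure period. At the TGI there is no net growth.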

Legend:
Assay in all cases: NCI tumour cell line growth inhibition, 48 h
[1] = test system: DMS 114 small cell lung
[2] = test system: LXFL 529 NSCLC
[3] = test system: M19-MEL melanoma
[4] = test system: SNB-78 CNS
[5] = test system: HOP-18 NSCLC
[6] = test system: P388 leukemia
[7] = test system: P388/ADR leukemia
[8] = test system: SN12K1 renal
[9] = test system: XF 498 CNS
[10] = test system: RXF-631 renal

Compound | TGI [1] [µM] | TGI [2] [µM] | TGI [3] [µM] | TGI [4] [µM] | TGI [5] [µM] | TGI [6] [µM] | TGI [7] [µM] | TGI [8] [µM] | TGI [9] [µM] | TGI [10] [µM]
CCN(CC)CC(=O)Nc1ccc2c(c1)C(=O)c1ccc(NC(=O)CN(CC)CC)cc1C2=O | 37.4 | 49 | > 100 | > 100 |  |  |  |  |  | 
COc1cc2cc3c4c(cc(OC)c(OC)c4c2cc1OC)CCN3C(=O)CCC(=O)O | > 100 | > 100 |  | > 100 |  |  |  |  |  | 
CCCCS(=O)CC(CO)NC(=O)/C=C/c1c(C)[nH]c(=O)[nH]c1=O (centres undefined) | 25.1 |  | 18.1 |  | 183 | 6.93 | 59.2 | 24.1 | 14 | 
CCN(CC)CCNC(=O)c1nn(-c2ccc(Cl)cc2)c2c1CCc1cc(OC)ccc1-2 | 6.68 | 16.4 | 7.11 | 24.2 | 28.7 |  |  |  | 17.6 | 3.16
CCCCc1c2c(nc3c1CC/C(=C\c1ccc([N+](=O)[O-])cc1)C3=O)CCCC2 | 4.4 | 2.68 | 4.59 | 4.38 |  |  |  |  |  | 
COc1ccc(-c2nc3c(nc2-c2ccc(OC)cc2)N(C)S(=O)(=O)N=C3N)cc1 | 72.7 | > 100 | > 100 |  | > 100 |  |  |  |  | 
